Data on one molecule can be found in patent publication EP0919233A1, “THERAPEUTIC AGENT FOR KIDNEY DISEASES” (KYOWA HAKKO KOGYO KABUSHIKI KAISHA, priority 1996, dated 1997).

Bounds are passed on as bounds.

Common to all, as to format: in vivo
One data set relates to dd-strain male mice. Nature of the data set: Acute Toxicity Test (minimum lethal dose). The conditions noted are these: three mice per group, mortality observed seven days after administration. How it is done: A test compound was orally or intraperitoneally administered to groups of dd-strain male mice weighing 20 ± 1 g, each group consisting of three mice. […] The MLD was >1000 mg/kg for oral administration of Compound 10 and was >100 mg/kg for intraperitoneal administration of Compound 10.

The next data set relates to Masugi Nephritis. Kind of data set: Effect on Increase of Albumin Excretion in Masugi Nephritis. The conditions noted are these: ddY-strain male mice, 1 mg/kg orally once a day from the previous immunization, 24 hr urine four weeks after second NT injection, mean ± standard error, n=11; control group 134 ± 9, normal group 85 ± 5. How it is done:
Mouse nephrotoxin (hereinafter referred to as NT) was prepared according to the method of Ito, et al. [The Japanese Journal of Nephrology, 23, 25-36 (1981)]. That is, glomerular basement membrane (hereinafter referred to as GBM) was isolated from mouse kidney and digested with trypsin (Sigma). The digested GBM was subjected to ultracentrifugation under cooling, and the supernatant was dialyzed against distilled water, followed by lyophilization. The lyophile product was intracutaneously injected as an antigen into four foot pads of a rabbit together with Freund's complete adjuvant (Iatron; hereinafter referred to as FCA) once a week for 4 weeks for immunization. The whole blood was drawn from the immunized rabbit, and serum was separated and inactivated at 56°C for 30 minutes to prepare NT.
In this test, ddY-strain male mice weighing 29-36 g were used. For previous immunization, 0.25 ml of an FCA emulsion containing 0.25 mg of rabbit immunoglobulin-globulin (IgG, Sigma) was intraperitoneally injected into mice. Nephritis was induced by intravenous injection of 0.075 ml of NT through the tail vein 4 and 11 days after the previous immunization. […] The supernatant was analyzed for urinary albumin content using an autoanalyzer (Olympus). […]
The results are shown in Table 5 as the means ± standard error of each group consisting of 11 mice. Statistical significance was evaluated by Student's t-test.

The test system of the next data set is Diabetic Nephropathy. Nature of the data set: Effect on Increase of Albumin Excretion in Diabetic Nephropathy (streptozotocin-induced). The following applies: STZ-diabetic ddY-strain male mice, 24 hr urine twelve weeks after STZ, mean ± standard error, control group 333 ± 30, normal group 80 ± 3. The protocol:
In this test, ddY-strain male mice weighing 25-28 g were used. Diabetes was induced according to the method of Tsuchida, et al. [Jin To Toseki (Kidney and Dialysis), 31, 363-366 (1991)]. That is, streptozotocin (5 mg/ml, Sigma; hereinafter referred to as STZ) dissolved in 0.05 M citrate buffer was intravenously injected into mice through the tail vein at a dose of 10 ml/kg. On the fourth day after the STZ administration, 30 µl of blood was collected from the tail vein of the mice and the blood glucose was determined using Glutestsensor (Sanwa Kagaku). The animals were divided into three groups based on the blood glucose level. Twelve weeks after the STZ administration, each mouse was put into a metabolic cage and received oral administration of 0.5 ml/10 g of distilled water twice at an interval of 12 hours. Urine was collected for 24 hours, and after measurement of the volume, the urine was centrifuged under cooling (3000 rpm, 4°C) for 5 minutes. The supernatant was analyzed for urinary albumin content using an autoanalyzer (Olympus). A test compound was orally administered once a day for 11 weeks, starting on the fifth day after the STZ administration. […] Statistical significance was evaluated by Aspin-Welch's test for the difference between the control group and the normal group and by Steel's test for the difference between the control group and the test compound-administered group.

As for `CCOc1cc2nc(N3CCOCC3)nc(N3CCC(n4c(=O)c5cc(C)ccc5n(C)c4=O)CC3)c2cc1OCC.Cl` [Compound 10, 3-[1-(6,7-Diethoxy-2-morpholino-4-quinazolinyl)-4-piperidinyl]-1,2,3,4-tetrahydro-1,6-dimethyl-2,4-dioxoquinazoline hydrochloride], the results for the “minimum lethal dose (MLD)” value with dd-strain male mice (intraperitoneal administration) and in the data set on dd-strain male mice (oral administration) were over 100 mg/kg and over 1000 mg/kg, respectively. Also, the “Urinary Albumin Content” value in the data set with Masugi Nephritis worked out at 96 ± 7 mg/kg/24 hr; in the data set on Diabetic Nephropathy (1 mg/kg orally once a day for 11 weeks), 244 ± 16 mg/kg/24 hr; in the data set with Diabetic Nephropathy (10 mg/kg orally once a day for 11 weeks), 200 ± 13 mg/kg/24 hr.
